Assay results from patent US11021444B2, “Antiviral compounds” (priority 2013, dated 2021).
pEC50, pIC50: −log10 of the molar value. Where two headings read alike, the source gives them in different places.

Columns and labels:
RSV replicon = assay: microbe, parasite or virus in culture; assay type: cell-based; conditions: read-out: EC50, the concentration of the drug required for reducing RSV replicon RNA by 50%
Method: The Renilla Luciferase Assay System (Promega, Cat. #E2820) was used to measure anti-RSV replicon activity. […] Luminescence was recorded using a Perkin Elmer multilabel counter Victor3V. EC50, the concentration of the drug required for reducing RSV replicon RNA by 50% in relation to the untreated cell control value, was calculated from the plot of percentage reductions of the optical density (OD) value against the drug concentrations using the Microsoft Excel forecast function.

recombinant RSV complex = recombinant RSV complex (Human respiratory syncytial virus A, UniProt P28887); assay: RSV Polymerase Inhibition Assay; assay type: biochemical
Sequence of recombinant RSV complex (P28887 whole entry): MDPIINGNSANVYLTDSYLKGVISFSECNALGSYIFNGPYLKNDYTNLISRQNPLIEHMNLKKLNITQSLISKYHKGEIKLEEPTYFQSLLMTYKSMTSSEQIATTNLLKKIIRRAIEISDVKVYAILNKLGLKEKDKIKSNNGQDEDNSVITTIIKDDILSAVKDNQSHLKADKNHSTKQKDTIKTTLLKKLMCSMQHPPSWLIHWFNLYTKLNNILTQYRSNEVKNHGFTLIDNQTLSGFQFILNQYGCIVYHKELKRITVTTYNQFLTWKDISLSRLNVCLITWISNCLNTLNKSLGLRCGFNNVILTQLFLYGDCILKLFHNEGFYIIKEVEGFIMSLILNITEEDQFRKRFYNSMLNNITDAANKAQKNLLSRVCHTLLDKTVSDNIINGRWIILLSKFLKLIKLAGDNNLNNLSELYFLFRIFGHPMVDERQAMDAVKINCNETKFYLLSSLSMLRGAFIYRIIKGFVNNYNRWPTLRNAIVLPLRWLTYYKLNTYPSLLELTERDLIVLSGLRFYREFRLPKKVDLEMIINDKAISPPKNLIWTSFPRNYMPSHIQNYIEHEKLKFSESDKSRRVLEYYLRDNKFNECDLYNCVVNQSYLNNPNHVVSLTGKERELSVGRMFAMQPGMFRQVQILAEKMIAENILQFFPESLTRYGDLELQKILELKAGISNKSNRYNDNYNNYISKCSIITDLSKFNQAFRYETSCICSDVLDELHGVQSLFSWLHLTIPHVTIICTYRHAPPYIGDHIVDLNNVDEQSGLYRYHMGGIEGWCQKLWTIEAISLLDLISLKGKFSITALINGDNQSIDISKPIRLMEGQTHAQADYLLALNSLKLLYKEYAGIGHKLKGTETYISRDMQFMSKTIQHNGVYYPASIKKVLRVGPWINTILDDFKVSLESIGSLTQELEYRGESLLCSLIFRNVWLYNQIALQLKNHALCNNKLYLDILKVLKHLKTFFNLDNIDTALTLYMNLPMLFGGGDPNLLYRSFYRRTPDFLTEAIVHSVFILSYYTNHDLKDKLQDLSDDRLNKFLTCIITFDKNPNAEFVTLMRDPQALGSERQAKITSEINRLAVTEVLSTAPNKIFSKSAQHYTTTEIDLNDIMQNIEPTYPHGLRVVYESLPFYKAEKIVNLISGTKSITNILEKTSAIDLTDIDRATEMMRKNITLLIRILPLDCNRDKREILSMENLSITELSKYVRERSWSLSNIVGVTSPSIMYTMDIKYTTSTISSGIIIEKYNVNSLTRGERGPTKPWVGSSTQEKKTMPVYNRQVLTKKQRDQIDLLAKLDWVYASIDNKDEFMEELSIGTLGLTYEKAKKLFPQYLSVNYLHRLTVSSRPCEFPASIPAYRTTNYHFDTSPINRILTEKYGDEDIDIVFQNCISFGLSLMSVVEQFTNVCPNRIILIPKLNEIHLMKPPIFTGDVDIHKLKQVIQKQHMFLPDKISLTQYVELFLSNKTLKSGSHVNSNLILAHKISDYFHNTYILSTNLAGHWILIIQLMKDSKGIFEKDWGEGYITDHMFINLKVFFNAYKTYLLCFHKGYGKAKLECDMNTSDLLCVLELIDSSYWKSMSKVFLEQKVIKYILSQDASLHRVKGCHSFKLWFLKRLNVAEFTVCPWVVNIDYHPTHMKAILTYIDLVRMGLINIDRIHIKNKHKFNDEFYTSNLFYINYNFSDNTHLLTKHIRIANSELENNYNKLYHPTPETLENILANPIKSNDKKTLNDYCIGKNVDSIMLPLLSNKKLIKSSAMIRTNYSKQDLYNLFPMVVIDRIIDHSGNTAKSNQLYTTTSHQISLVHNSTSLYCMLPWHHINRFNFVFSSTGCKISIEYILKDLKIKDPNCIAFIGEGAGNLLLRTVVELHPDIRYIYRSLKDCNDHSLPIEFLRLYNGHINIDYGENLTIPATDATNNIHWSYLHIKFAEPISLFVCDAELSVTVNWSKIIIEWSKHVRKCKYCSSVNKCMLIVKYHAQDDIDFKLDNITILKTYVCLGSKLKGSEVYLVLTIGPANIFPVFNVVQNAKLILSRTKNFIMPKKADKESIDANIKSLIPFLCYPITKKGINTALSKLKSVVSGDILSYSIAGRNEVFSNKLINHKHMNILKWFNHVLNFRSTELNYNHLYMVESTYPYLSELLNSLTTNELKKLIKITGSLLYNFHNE
Sequence of recombinant RSV complex (P03421 whole entry, further chain): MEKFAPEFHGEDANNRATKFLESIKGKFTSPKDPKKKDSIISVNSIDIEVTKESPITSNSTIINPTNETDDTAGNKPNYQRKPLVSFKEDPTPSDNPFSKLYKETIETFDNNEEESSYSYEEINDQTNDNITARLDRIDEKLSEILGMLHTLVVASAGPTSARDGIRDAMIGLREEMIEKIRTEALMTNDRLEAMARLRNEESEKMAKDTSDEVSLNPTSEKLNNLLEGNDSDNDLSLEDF
Outline: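 10 nM recombinant RSV polymerase complex in Tris-HCl pH 7.5, 6 mM MgCl2 with RNA oligonucleotide template and radionucleotides, incubated 2 h at 30 °C with increasing inhibitor concentrations. Reaction stopped with EDTA; radiolabeled RNA product counted by scintillation.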

[1] = system: Respiratory Syncytial Virus (RSV) long strain; assay: microbe, parasite or virus in culture; assay type: cell-based; conditions: Tables A and B list compounds by EC50 band
Outline: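 HEp-2 cells infected with 100 TCID50 virus per well, compounds in duplicate, 9-point 1/3 dilutions from 100 μM or 1 μM, 1% DMSO. After 5 days at 37 °C, cell viability (CPE protection) read by CCK-8 absorbance at 450 nm, 630 nm background.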

[2] = Cytotoxicity Determination (CCK-8, without addition of virus); assay type: cell-based; conditions: human, 50% cytotoxicity concentration (CC50)
Outline: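 HEp-2 cells were seeded at 1,500 cells/well one day before compound addition. Compounds were tested without virus in duplicate over 7 points from 100 μM in 1/2 steps, with 1% final DMSO, 5 days at 37 °C, 5% CO2. Viability was read by CCK-8 after 3-4 hours.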

[3] = human respiratory syncytial virus
[4] = human respiratory syncytial virus, HEp-2, 120 h, read-out: 50% effective concentration (EC50), HEp-2 cells infected with RSV long strain, 5 days, CCK-8 readout
[5] = human respiratory syncytial virus, 120 h, read-out: 50% effective concentration (EC50), HEp-2 cells infected with RSV long strain, 5 days, CCK-8 readout

Structure (SMILES) | pEC50 (RSV replicon; [3]) | pIC50 (recombinant RSV complex) | pEC50 [1, 4] | CC50 at 5 days [2] | pEC50 [1, 5] | pEC50 (RSV replicon; RSV replicon, 395 HeLa or APC126 cells, value given by membership in Table H / Table I) | pIC50 (recombinant RSV complex; read-out: IC50 (compound concentration at which the enzyme-catalyzed rate was reduced by 50%), 10 nM recombinant RSV complex, 2 h at 30° C., Tables E, F and G list compounds by IC50 band) | pEC50 ([1]; read-out: 50% effective concentration (EC50), HEp-2 cells infected with RSV long strain, 5 days, CCK-8 readout)
COc1cc(C(=O)NCC(O)(c2ccc(OC)c(-c3ccc(F)c(Cl)c3)n2)C2CC2)ccc1Cn1ccnc1 (stereo not drawn) [Compound 438] | 4.30 to 6.00 | > 5.00 | 4.30 to 6.00 | 10000 to 100000 nM | – | – | – | –
COc1cc(C(=O)NCC(C)(O)c2ccc(OC)c(-c3ccc(F)c(Cl)c3)n2)ccc1OCC(F)F (stereo not drawn) [Compound 372] | > 6.00 | > 6.00 | > 6.00 | 10000 to 100000 nM | – | – | – | –
COc1cc(C(=O)NCC(O)(c2cc(C(C)(C)N)cc(-c3c[nH]c4c(F)cccc34)n2)C(F)(F)F)ccc1OC1CC1 (stereo not drawn) [Compound 519] | > 6.00 | > 6.00 | > 6.00 | – | – | – | – | –
COCCNC(C)(C)c1cc(-c2ccc(F)c(Cl)c2)nc(C(O)(CNC(=O)c2ccc(OC3CC3)c(OC)c2)C(F)(F)F)c1 (stereo not drawn) [Compound 505] | > 6.00 | > 6.00 | > 6.00 | – | – | – | – | –
COc1cc(C(=O)NCC(O)(c2cc(C(C)(C)N)cc(-c3ccc(F)c(Cl)c3)n2)C(F)(F)F)ccc1OCC(=O)O (stereo not drawn) [Compound 578] | > 6.00 | > 6.00 | – | 10000 to 100000 nM | – | – | – | –
CCOc1ccc(C(=O)NCC(O)(c2cc3c(c(-c4ccc(F)c(Cl)c4)n2)OCC3(C)N)C(F)(F)F)cc1Cl (stereo not drawn) [Compound 494] | > 6.00 | > 6.00 | > 6.00 | – | – | – | – | –
COc1cc(C(=O)NCC(O)(c2cc(C(C)(C)NCCN)cc(-c3ccc(F)c(Cl)c3)n2)C(F)(F)F)ccc1OC1CC1 (stereo not drawn) [Compound 508] | > 6.00 | > 6.00 | > 6.00 | – | – | – | – | –
COc1ccc(C(=O)NCC(O)c2cccc(-c3csc4c(F)cccc34)n2)cc1OC (stereo not drawn) [Compound 106] | > 6.00 | – | – | 10000 to 100000 nM | 4.30 to 6.00 | – | – | –
CC(C)(N)c1cc(-c2ccc(F)c(Cl)c2)nc(C(O)(CNC(=O)c2ccc3c(c2)OCCO3)C(F)(F)F)c1 (stereo not drawn) [Compound 273] | > 6.00 | > 6.00 | > 6.00 | – | – | – | – | –
COc1cc(C(=O)NCC(O)(c2cc(C(C)(C)N)cc(-c3ccc(F)c(Cl)c3)n2)C(F)(F)F)ccc1OC1CC1(F)F (stereo not drawn) [Compound 324] | > 6.00 | > 6.00 | > 6.00 | – | – | – | – | –
COc1cc(C(=O)NCC(O)(c2cc(C(C)(C)O)cc(-c3ccc(F)c(Cl)c3)n2)C(F)(F)F)ccc1OC1CC1 (stereo not drawn) [Compound 386] | > 6.00 | > 6.00 | – | 10000 to 100000 nM | – | – | – | –
COc1ccc(C(O)(CNC(=O)c2cc(OC)c3ncccc3c2)C(F)(F)F)nc1-c1ccc(F)c(Cl)c1 (stereo not drawn) [Compound 339] | > 6.00 | – | > 6.00 | 10000 to 100000 nM | – | – | – | –
COc1cc(C(=O)NC[C@](O)(c2cc3c(c(-c4ccc(C#N)cc4)n2)OC[C@]3(C)N)C(F)(F)F)ccc1OCCO [Compound 604d] | > 6.00 | > 6.00 | > 6.00 | – | – | – | – | –
COc1cc(C(=O)NCC(O)(c2cc3c(c(-c4ccc(C#N)cc4)n2)OCC3(C)N)C(F)(F)F)ccc1OC1CC1 (stereo not drawn) [Compound 542] | > 6.00 | – | – | 10000 to 100000 nM | > 6.00 | – | – | –
COc1cc(C(=O)NCC(O)(c2cc(C(C)(C)NC(=O)CN)cc(-c3ccc(F)c(Cl)c3)n2)C(F)(F)F)ccc1OC1CC1 (stereo not drawn) [Compound 497] | > 6.00 | > 6.00 | > 6.00 | – | – | – | – | –
COc1cc(C(=O)NCC(O)(c2cc3c(c(-c4ccc(F)c(Cl)c4)n2)OCC3(C)NCCN)C(F)(F)F)ccc1OC1CC1 (stereo not drawn) [Compound 499] | > 6.00 | > 6.00 | > 6.00 | – | – | – | – | –
COc1cc(C(=O)NCC(O)(c2cc3c(c(-c4ccc(CO)cc4)n2)OCC3(C)N)C(F)(F)F)ccc1OCCO (stereo not drawn) [Compound 672] | > 6.00 | > 5.00 | – | > 100000 nM | – | – | – | –
COc1cc(C(=O)NCC(O)(c2cc(C(C)(C)N)cc(-c3ccc(Cl)cc3)n2)C(F)(F)F)ccc1OC1CC1 (stereo not drawn) [Compound 520] | > 6.00 | > 6.00 | – | – | > 6.00 | – | – | –
COc1cc(C(=O)NCC(O)(c2cc3c(c(-c4ccc(C(=O)O)cc4)n2)OCC3(C)N)C(F)(F)F)ccc1OCCO (stereo not drawn) [Compound 675] | > 6.00 | – | – | > 100000 nM | – | – | – | –
CC(C)(N)c1cc(-c2ccc(F)c(Cl)c2)nc(C(O)(CNC(=O)c2ccc(OC3CCNC3=O)c(Cl)c2)C(F)(F)F)c1 (stereo not drawn) [Compound 281] | > 6.00 | > 6.00 | > 6.00 | – | – | – | – | –
COc1cc(C(=O)NCC(O)(c2cc(C(C)(C)N)cc(-c3ccc(F)c(Cl)c3)n2)C(F)(F)F)ccc1OCC(F)(F)F (stereo not drawn) [Compound 325] | > 6.00 | > 6.00 | > 6.00 | – | – | – | – | –

Structure (SMILES) | pEC50 (RSV replicon; [3]) | pIC50 (recombinant RSV complex) | pEC50 [1, 4] | CC50 at 5 days [2] | pEC50 [1, 5] | pEC50 (RSV replicon; RSV replicon, 395 HeLa or APC126 cells, value given by membership in Table H / Table I) | pIC50 (recombinant RSV complex; read-out: IC50 (compound concentration at which the enzyme-catalyzed rate was reduced by 50%), 10 nM recombinant RSV complex, 2 h at 30° C., Tables E, F and G list compounds by IC50 band) | pEC50 ([1]; read-out: 50% effective concentration (EC50), HEp-2 cells infected with RSV long strain, 5 days, CCK-8 readout)
COc1cc(C(=O)NCC(O)(c2cc3c(c(-c4ccc(F)c(Cl)c4)n2)OCCC3(C)C)C(F)(F)F)ccc1OC1CCNC1=O (stereo not drawn) [Compound 348] | > 6.00 | – | > 6.00 | 10000 to 100000 nM | – | – | – | –
COc1cc(C(=O)NCC(O)(c2cc(C(C)(C)N)cc(-c3ccc(F)c(Cl)c3)n2)C(F)(F)F)ccc1OC1CC1 (single isomer, unassigned) [Compound 272] | > 6.00 | > 6.00 | > 6.00 | – | – | – | – | –
COc1cc(C(=O)NCC(O)(c2cc(C(C)(C)N)cc(-c3ccc(F)c(C(F)(F)F)c3)n2)C(F)(F)F)ccc1OC1CC1 (stereo not drawn) [Compound 521] | > 6.00 | > 6.00 | > 6.00 | – | – | – | – | –
COc1cc(C(=O)NCC(O)(c2cc(C(C)(C)N)cc(-c3ccc(F)c(Cl)c3)n2)C2CC2)ccc1OC1CC1 (stereo not drawn) [Compound 667] | > 6.00 | > 6.00 | > 6.00 | – | – | – | – | –
COc1cc(C(=O)NCC2(c3cccc(-c4csc5c(F)cccc45)n3)COC2)ccc1OCCO [Compound 163] | 4.30 to 6.00 | – | – | 10000 to 100000 nM | – | – | – | –
COc1cc(C(=O)NCC(O)(c2ccc(OC)c(-c3ccc(F)c(Cl)c3)n2)C(F)(F)F)ccc1OC(C)C(N)=O (stereo not drawn) [Compound 338] | > 6.00 | – | > 6.00 | 10000 to 100000 nM | – | – | – | –
CC(C)(N)c1cc(-c2ccc(F)c(Cl)c2)nc(C(O)(CNC(=O)c2ccc(OC3CC3)c(Cl)c2)C(F)(F)F)c1 (stereo not drawn) [Compound 282] | > 6.00 | > 6.00 | > 6.00 | – | – | – | – | –
COc1cc(C(=O)NCC(O)(c2ccc(OC)c(-c3ccc(F)c(Cl)c3)n2)c2cnn(C)n2)ccc1OCCO (stereo not drawn) [Compound 198] | > 6.00 | > 6.00 | > 6.00 | – | – | – | – | –
CC(C)(N)c1cc(-c2ccc(F)c(Cl)c2)nc(C(O)(CNC(=O)c2ccc3c(c2)OC(F)(F)O3)C(F)(F)F)c1 (stereo not drawn) [Compound 275] | > 6.00 | > 6.00 | 4.30 to 6.00 | – | – | – | – | –
COc1cc(C(=O)NCC(O)(c2cc3c(c(-c4ccc(F)c(Cl)c4)n2)OCCC3(C)C)C(F)(F)F)ccc1OC1CC1 (stereo not drawn) [Compound 345] | > 6.00 | – | > 6.00 | > 100000 nM | – | – | – | –
COc1cc(C(=O)NCC(O)(c2cc3c(c(-c4ccc(F)c(Cl)c4)n2)OCCC3(C)C)C(F)(F)F)ccc1OC[C@@H](C)O (stereo partly drawn) [Compound 346] | > 6.00 | – | > 6.00 | 10000 to 100000 nM | – | – | – | –
COc1cc(C(=O)NCC(O)(c2cc(C(C)(C)N)cc(-c3ccc(F)c(Cl)c3)n2)C(F)(F)F)ccc1OC1CC1 (stereo not drawn) [Compound 314] | > 6.00 | > 6.00 | > 6.00 | – | – | – | – | –
COc1cc(C(=O)NCC(O)(c2ccc(OC)c(-c3ccc(F)c(Cl)c3)n2)C(F)(F)F)ccc1OC[C@@H](C)O (stereo partly drawn) [Compound 336] | > 6.00 | – | > 6.00 | 10000 to 100000 nM | – | – | – | –
COc1cc(C(=O)NCC(O)(Cn2cccn2)c2ccc(OC)c(-c3ccc(F)c(Cl)c3)n2)ccc1OCCO (stereo not drawn) [Compound 184] | – | – | – | – | – | > 6.00 | > 6.00 | > 6.00
COc1cc(C(=O)NCC(O)(c2cc(C(C)(C)N)cc(-c3ccc(F)c(Cl)c3)n2)C(F)(F)F)ccc1OC1CC(F)C1 (stereo not drawn) [Compound 323] | > 6.00 | > 6.00 | > 6.00 | – | – | – | – | –
COc1cc(C(=O)NCC(C)(OC)c2ccc(OC)c(-c3ccc(F)c(Cl)c3)n2)ccc1OCC(F)F (stereo not drawn) [Compound 375] | 4.30 to 6.00 | > 6.00 | – | – | – | – | – | –
COc1cc(C(=O)NCC(O)(c2ccc(OC)c(-c3ccc(F)c(Cl)c3)n2)C(F)(F)F)ccc1OCc1ccn[nH]1 (stereo not drawn) [Compound 332] | 4.30 to 6.00 | > 6.00 | – | – | – | – | – | –
CNC(C)(C)c1cc(-c2ccc(F)c(Cl)c2)nc(C(O)(CNC(=O)c2ccc(OC3CC3)c(OC)c2)C(F)(F)F)c1 (stereo not drawn) [Compound 394] | > 6.00 | > 6.00 | > 6.00 | – | – | – | – | –
COc1cc(C(=O)NCC(O)(c2cc3c(c(-c4ccc(F)c(Cl)c4)n2)OCCC3(C)C)C(F)(F)F)ccc1OCC(N)=O (stereo not drawn) [Compound 347] | > 6.00 | – | > 6.00 | 10000 to 100000 nM | – | – | – | –
COc1cc(C(=O)NCC(O)(c2cc(C(C)(C)N)cc(-c3ccc(F)cc3)n2)C(F)(F)F)ccc1OC/C(N)=N/O (stereo not drawn) [Compound 636] | > 6.00 | > 6.00 | – | – | – | – | – | –
